System: Haematococcus pluvialis (Strain 2)
Test: % cell lysis, culture dry weight and % carotenoid by UV method in 230 L reactors, salt treatment (Example 12)
Format: cell-based
Conditions: for Culture Dry Weight in 230L reactors: NaCl 2 ppt (1st 2 ppt column)
Procedure: This test was done side by side in flasks (0.1 L) and in reactors located in a greenhouse operating in conditions: reactor volume of 230 L; Daily PAR of 20 mol m^−2 d^−1; pH (not measured); and paddlewheel speed of 21 RPM. […] The flask cultures were mixed by shaking at 140 rpm and received 300-400 μmol/m^2 s of photosynthetically active radiation (PAR) in 12 hour light cycles and constant supply of 2.5% CO2. The motility of the culture was monitored by visual observation under a microscope. […] Nine 230 L reactors were also seeded with culture from bioreactor #2410 on the same day as the flasks and brought to 2 ppt concentration of salt. Once motility of the cells was reduced to <10% (day 3 of culture for flasks and day 2 for 230 L reactors) the level of salt was elevated to a point between 4-18 ppt and compared to the culture in two reactors remaining at 2 ppt salt. Flasks and 230 L reactors were monitored for percentage of cell lysis via visual observation under a microscope, culture dry weight (biomass accumulation in g/L), and percentage of chytrid infection via visual observation under a microscope. Carotenoid production, a proxy for determining astaxanthin, was quantified every other day of culture in the 230 L reactors using the UV method.

## [Cl-].[Na+] [NaCl, sodium chloride]
4 ppt, 2 d
  % Cell Lysis in 230L reactors: 1.67%
4 ppt, 3 d
  % Cell Lysis in 230L reactors: 0.00%
4 ppt, 4 d
  % Cell Lysis in 230L reactors: 0.00%
4 ppt, 5 d
  % Cell Lysis in 230L reactors: 3.33%
4 ppt, 6 d
  % Cell Lysis in 230L reactors: 0.00%
4 ppt, 7 d
  % Cell Lysis in 230L reactors: 30.00%
4 ppt, 8 d
  % Cell Lysis in 230L reactors: 23.33%
4 ppt, 9 d
  % Cell Lysis in 230L reactors: 13.33%
4 ppt, 10 d
  % Cell Lysis in 230L reactors: 11.67%
4 ppt, 11 d
  % Cell Lysis in 230L reactors: 5.00%
4 ppt, 12 d
  % Cell Lysis in 230L reactors: 6.67%
5 ppt, 2 d
  % Cell Lysis in 230L reactors: 3.18%
5 ppt, 3 d
  % Cell Lysis in 230L reactors: 5.00%
5 ppt, 4 d
  % Cell Lysis in 230L reactors: 3.33%
5 ppt, 5 d
  % Cell Lysis in 230L reactors: 1.67%
5 ppt, 6 d
  % Cell Lysis in 230L reactors: 21.67%
5 ppt, 7 d
  % Cell Lysis in 230L reactors: 10.00%
5 ppt, 8 d
  % Cell Lysis in 230L reactors: 1.67%
5 ppt, 9 d
  % Cell Lysis in 230L reactors: 5.00%
5 ppt, 10 d
  % Cell Lysis in 230L reactors: 5.00%
5 ppt, 11 d
  % Cell Lysis in 230L reactors: 8.33%
5 ppt, 12 d
  % Cell Lysis in 230L reactors: 3.33%
6 ppt, 2 d
  % Cell Lysis in 230L reactors: 0.00%
6 ppt, 3 d
  % Cell Lysis in 230L reactors: 0.00%
6 ppt, 4 d
  % Cell Lysis in 230L reactors: 8.33%
6 ppt, 5 d
  % Cell Lysis in 230L reactors: 0.00%
6 ppt, 6 d
  % Cell Lysis in 230L reactors: 13.33%
6 ppt, 7 d
  % Cell Lysis in 230L reactors: 18.33%
6 ppt, 8 d
  % Cell Lysis in 230L reactors: 1.67%
6 ppt, 9 d
  % Cell Lysis in 230L reactors: 6.67%
6 ppt, 10 d
  % Cell Lysis in 230L reactors: 1.67%
6 ppt, 11 d
  % Cell Lysis in 230L reactors: 6.67%
6 ppt, 12 d
  % Cell Lysis in 230L reactors: 5.00%
7 ppt, 2 d
  % Cell Lysis in 230L reactors: 0.00%
7 ppt, 3 d
  % Cell Lysis in 230L reactors: 0.00%
7 ppt, 4 d
  % Cell Lysis in 230L reactors: 3.33%
7 ppt, 5 d
  % Cell Lysis in 230L reactors: 1.67%
7 ppt, 6 d
  % Cell Lysis in 230L reactors: 18.33%
7 ppt, 7 d
  % Cell Lysis in 230L reactors: 8.33%
7 ppt, 8 d
  % Cell Lysis in 230L reactors: 1.67%
7 ppt, 9 d
  % Cell Lysis in 230L reactors: 6.67%
7 ppt, 10 d
  % Cell Lysis in 230L reactors: 6.67%
7 ppt, 11 d
  % Cell Lysis in 230L reactors: 11.67%
7 ppt, 12 d
  % Cell Lysis in 230L reactors: 5.00%
8 ppt, 2 d
  % Cell Lysis in 230L reactors: 3.18%
8 ppt, 3 d
  % Cell Lysis in 230L reactors: 3.33%
8 ppt, 4 d
  % Cell Lysis in 230L reactors: 0.00%
8 ppt, 5 d
  % Cell Lysis in 230L reactors: 3.33%
8 ppt, 6 d
  % Cell Lysis in 230L reactors: 16.67%
8 ppt, 7 d
  % Cell Lysis in 230L reactors: 5.00%
8 ppt, 8 d
  % Cell Lysis in 230L reactors: 0.00%
8 ppt, 9 d
  % Cell Lysis in 230L reactors: 6.67%
8 ppt, 10 d
  % Cell Lysis in 230L reactors: 15.00%
8 ppt, 11 d
  % Cell Lysis in 230L reactors: 11.67%
8 ppt, 12 d
  % Cell Lysis in 230L reactors: 3.33%
10 ppt, 2 d
  % Cell Lysis in 230L reactors: 0.00%
10 ppt, 3 d
  % Cell Lysis in 230L reactors: 5.00%
10 ppt, 4 d
  % Cell Lysis in 230L reactors: 6.67%
10 ppt, 5 d
  % Cell Lysis in 230L reactors: 36.67%
10 ppt, 6 d
  % Cell Lysis in 230L reactors: 31.67%
10 ppt, 7 d
  % Cell Lysis in 230L reactors: 3.33%
10 ppt, 8 d
  % Cell Lysis in 230L reactors: 0.00%
10 ppt, 9 d
  % Cell Lysis in 230L reactors: 5.00%
10 ppt, 10 d
  % Cell Lysis in 230L reactors: 3.33%
10 ppt, 11 d
  % Cell Lysis in 230L reactors: 6.67%
10 ppt, 12 d
  % Cell Lysis in 230L reactors: 5.00%
18 ppt, 2 d
  % Cell Lysis in 230L reactors: 0.00%
18 ppt, 3 d
  % Cell Lysis in 230L reactors: 3.33%
18 ppt, 4 d
  % Cell Lysis in 230L reactors: 13.33%
18 ppt, 5 d
  % Cell Lysis in 230L reactors: 5.00%
18 ppt, 6 d
  % Cell Lysis in 230L reactors: 26.67%
18 ppt, 7 d
  % Cell Lysis in 230L reactors: 20.00%
18 ppt, 8 d
  % Cell Lysis in 230L reactors: 1.67%
18 ppt, 9 d
  % Cell Lysis in 230L reactors: 8.33%
18 ppt, 10 d
  % Cell Lysis in 230L reactors: 5.00%
18 ppt, 11 d
  % Cell Lysis in 230L reactors: 1.67%
18 ppt, 12 d
  % Cell Lysis in 230L reactors: 3.33%
230 L reactors, all treatments except 10 ppt
  cell lysis: below 30%
Time 0 d
  Culture Dry Weight in 230L reactors: 0.030 g/L
Time 1 d
  Culture Dry Weight in 230L reactors: 0.042 g/L
Time 2 d
  Culture Dry Weight in 230L reactors: 0.065 g/L
Time 4 d
  Culture Dry Weight in 230L reactors: 0.145 g/L
Time 5 d
  Culture Dry Weight in 230L reactors: 0.228 g/L
Time 6 d
  Culture Dry Weight in 230L reactors: 0.173 g/L
Time 7 d
  Culture Dry Weight in 230L reactors: 0.185 g/L
Time 8 d
  Culture Dry Weight in 230L reactors: 0.273 g/L
Time 9 d
  Culture Dry Weight in 230L reactors: 0.145 g/L
Time 10 d
  Culture Dry Weight in 230L reactors: 0.220 g/L
Time 11 d
  Culture Dry Weight in 230L reactors: 0.145 g/L

Reference: US20160281050A1, “METHODS FOR TREATING A CULTURE OF HAEMATOCOCCUS PLUVIALIS FOR CONTAMINATION USING SALT AND HYDROGEN PEROXIDE” (HELIAE DEVELOPMENT LLC, priority 2015, published 2016)
